Patent publication US9416132B2, “Substituted imidazo[1,2-b]pyridazines as protein kinase inhibitors” (Tolero Pharmaceuticals, Inc., priority 2011, dated 2016)
Read-outs that look alike come from different tables or passages of the source.

What was measured:
[1] = molecular target: T1, PIM-1 (Homo sapiens (Human), UniProt P11309); test: Pim-1 kinase inhibition assay (Promega Kinase-Glo); type: biochemical; conditions: read-out: Compound IC50 on Pim1
Source text: One illustrative manner in which Pim-1 kinase activity can be determined is by quantifying the amount of ATP remaining in solution after an in vitro Pim-1 kinase reaction. The Kinase-Glo Assay Kit (Promega, Inc., Madison, Wis.) allows this. The amount of ATP remaining in the solution after the kinase reaction serves as a substrate for the luciferase to catalyze luciferin to oxyluciferin plus one photon of light. Thus, the luminescent signal read by the Luminoskan Ascent Instrument (Thermo Electron Corp., Milford, Mass.) correlates with the amount of ATP present after the kinase reaction and inversely correlates with the amount of kinase activity. […] These assays are set up in duplicate 50 ul volumes in white, flat bottom 96 well plates. […] This solution is incubated at 30 degrees Celsius at 360 rpm for two hours. Following the incubation, 50 ul of Kinase-Glo reagent is added to each well, including all positive and negative control wells, and incubated at room temperature for 15 minutes. […] The IC50 values can then be calculated for each inhibitor tested.

[2] = molecular target: hERG (Homo sapiens (Human), UniProt Q12809); test: hERG Fast Patch assay (WuXiApptec); type: cell-based
[3] = tested on: NIH-3T3/PIM-2 xenografts; test: NIH-3T3/PIM-2 over-expression mouse tumor xenograft; type: in vivo
Source text: (§1) Male and female Nu/Nu mice were purchased from Harlan Sprague Dawley (Indianapolis, Ind.). Female Nu/Nu mice were used for all xenograft evaluations with the exception of the PC-3 xenografts where male Nu/Nu mice were used. Cell lines were expanded in vitro in complete media, and if adherent were harvested by trypsin-EDTA, centrifuged and resuspended in PBS 1:1 with Matrigel (BD Bioscienes). Cells were inoculated subcutaneously in the right hind flank of mice. When tumors reached 100-200 mm^3 by caliper measurement, mice were randomized and dosing of SGI-9481 or vehicle control began and continued every day for 5 days (QD×5) with 2 days off for 18-21 days. Tumor volumes and body weights were determined twice a week, and tumor weights were measured at the completion of the translational xenograft studies.
(§2) The prostate cancer cell line 22RV1 engineered to over-express PIM-1 as previously described (Mumenthaler, et al, Mol. Cancer Ther., 2009, 8(10)2882-93) was evaluated in vivo. A second model engineered to over-express PIM-2 was established using the NIH-3T3 mouse fibroblast cell line.

[4] = molecular target: T1, PIM-1; test: PIM-1/BAD over-expression phospho-BAD (Ser112) AlphaScreen assay in HEK-293 cells; type: cell-based; conditions: PIM-1/BAD over-expression in HEK-293 cells; read-out: average EC50, PIM-1 specific cellular activity (BAD Ser112 phosphorylation)
Experimental: HEK-293 cells (1×10^4) were seeded in a 96-well plate using EMEM media with serum and incubated overnight at 37° C. in 5% CO2. […] Cells were serum starved for an additional 18 hours, then treated 2 hours with various concentrations of SGI-9481 or 0.5% carrier DMSO control. Media was removed and cells were lysed using 25 μl 1× lysis buffer from the AlphaScreen SureFire Phospho-BAD (Ser112) kit from Perkin Elmer. Lysates (4 μl) were transferred to a 384-well proxiplate, and 5 μl of acceptor mix was added to each well and incubated for 2 hours at room temperature. Donor mix (2 μl) was added to each well, and samples incubated for 2 hours at room temperature and reactions measured on an Envision plate reader (Perkin Elmer) with AlphaScreen capabilities. Non-specific phosphorylation of BAD was subtracted using values from PIM-1 KD transfected cells, and the remaining wells were normalized to the DMSO control wells. EC50 values were calculated using GraphPad Prism software (La Jolla, Calif.).

[5] = tested on: phosphatidyl inositol-3-kinase (PI3K) family; test: Selectivity study; type: biochemical
[6] = tested on: PC-3 xenograft tumors; test: PC-3 established mouse xenograft tumors; type: in vivo
Source text: as §1, with “When tumors reached 100-200 mm^3 by caliper measurement, mice were randomized and dosing of SGI-9481 or vehicle control began and continued every day for 5 days (QD×5) with 2 days off for 18-21 days.” left out

[7] = tested on: UM-UC-3 xenograft tumors; test: UM-UC-3 established mouse xenograft tumors; type: in vivo
Source text: as §1, with “When tumors reached 100-200 mm^3 by caliper measurement, mice were randomized and dosing of SGI-9481 or vehicle control began and continued every day for 5 days (QD×5) with 2 days off for 18-21 days.” left out

[8] = Pharmacokinetic study in PC-3 tumor-burdened mice; type: in vivo, mouse; conditions: 200 mg/kg
[9] = tested on: ML-2 cells (wild-type FLT3) xenografts; test: ML-2 mouse xenograft study; type: in vivo; conditions: ML-2 (wild-type FLT3) xenografts
Source text: as §1

[10] = tested on: MV-4-11 (FLT3-ITD) xenografts; test: MV-4-11 mouse xenograft study; type: in vivo
Source text: as §1

[11] = tested on: 22RV1/PIM-1 xenografts; test: 22RV1/PIM-1 over-expression mouse tumor xenograft; type: in vivo
Source text: as §1, §2

[12] = 125 mg/kg, less than with 200 mg/kg

Sequence of hERG (Q12809 whole entry): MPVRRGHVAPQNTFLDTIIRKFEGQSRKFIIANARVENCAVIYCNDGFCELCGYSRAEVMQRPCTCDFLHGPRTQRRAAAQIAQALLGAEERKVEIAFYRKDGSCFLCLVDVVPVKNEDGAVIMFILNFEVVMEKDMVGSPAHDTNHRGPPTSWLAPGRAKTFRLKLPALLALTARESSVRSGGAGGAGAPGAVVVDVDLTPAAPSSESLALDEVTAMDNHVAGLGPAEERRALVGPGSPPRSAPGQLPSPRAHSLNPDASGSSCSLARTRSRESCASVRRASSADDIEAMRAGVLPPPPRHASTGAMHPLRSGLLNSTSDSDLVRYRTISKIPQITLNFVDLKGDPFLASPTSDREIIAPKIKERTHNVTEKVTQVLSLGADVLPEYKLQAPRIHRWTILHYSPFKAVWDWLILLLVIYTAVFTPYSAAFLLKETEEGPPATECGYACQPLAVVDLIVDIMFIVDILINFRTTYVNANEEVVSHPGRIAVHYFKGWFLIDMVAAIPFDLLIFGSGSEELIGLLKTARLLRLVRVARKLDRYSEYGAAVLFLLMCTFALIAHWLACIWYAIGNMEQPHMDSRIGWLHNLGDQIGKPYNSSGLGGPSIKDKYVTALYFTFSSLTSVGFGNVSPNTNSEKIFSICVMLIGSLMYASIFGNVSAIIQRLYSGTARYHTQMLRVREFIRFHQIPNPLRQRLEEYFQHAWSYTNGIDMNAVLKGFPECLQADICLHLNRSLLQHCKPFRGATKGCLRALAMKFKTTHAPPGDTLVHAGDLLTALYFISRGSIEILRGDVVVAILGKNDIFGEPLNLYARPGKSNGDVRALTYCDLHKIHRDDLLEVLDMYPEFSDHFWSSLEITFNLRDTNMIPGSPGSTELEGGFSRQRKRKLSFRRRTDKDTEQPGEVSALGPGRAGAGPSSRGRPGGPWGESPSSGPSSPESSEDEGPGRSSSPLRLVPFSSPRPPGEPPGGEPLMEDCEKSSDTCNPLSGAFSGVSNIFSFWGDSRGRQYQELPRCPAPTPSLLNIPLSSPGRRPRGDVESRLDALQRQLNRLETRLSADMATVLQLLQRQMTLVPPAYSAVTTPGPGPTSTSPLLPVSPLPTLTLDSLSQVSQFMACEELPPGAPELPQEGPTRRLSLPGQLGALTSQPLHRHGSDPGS
T1 sequence (P11309 whole entry): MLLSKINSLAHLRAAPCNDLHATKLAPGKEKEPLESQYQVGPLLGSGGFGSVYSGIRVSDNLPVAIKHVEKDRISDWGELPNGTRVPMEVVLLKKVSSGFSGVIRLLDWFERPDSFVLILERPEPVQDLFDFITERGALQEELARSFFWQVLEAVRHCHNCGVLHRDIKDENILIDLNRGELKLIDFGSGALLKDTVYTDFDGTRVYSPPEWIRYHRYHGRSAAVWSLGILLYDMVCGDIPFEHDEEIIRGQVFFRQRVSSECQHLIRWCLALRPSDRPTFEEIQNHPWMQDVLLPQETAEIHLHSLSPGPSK

Structure (SMILES): N[C@H]1CC[C@H](Nc2ccc3ncc(-c4cccc(OC(F)(F)F)c4)n3n2)CC1 [Compound 8-8, (3-(3-(Trifluoromethoxy)phenyl)imidazo[1,2-b]pyridazin-6-yl)cyclohexane-trans-1,4-diamine]
- IC50 ([1]; Table IV): 0.004 µM

Structure (SMILES): C[C@]1(O)CC[C@H](Nc2ccc3ncc(-c4cccc(C(F)(F)F)c4)n3n2)CC1 [Compound 8-30, 1-Methyl-4-((3-(3-(trifluoromethyl)phenyl)imidazo[1,2-b]pyridazin-6-yl)amino)-trans-cyclohexanol]
- IC50 ([1]; Table IV): 0.103 µM
- IC50 [2]: 12 µM

Structure (SMILES): CC(C)(O)[C@H]1CC[C@H](Nc2ccc3ncc(-c4cccc(C(F)(F)F)c4)n3n2)CC1 [Compound 8-31]
- subcutaneous tumor growth ([3]; NIH-3T3/PIM-2 + compound vs NIH-3T3/PIM-2 + vehicle): significantly inhibited
- body weight changes ([3]; NIH-3T3/PIM-2 xenograft mice): No significant changes in body weight
- EC50 [4]: 0.067 µM
- activity against multiple members of the PI3K family [5]: inhibitory activity
- IC50 ([1]; Table IV): 0.001 µM
- tumor growth inhibition [6, 12]: significant tumor growth inhibition
- body weight or gross adverse toxicity ([6]; oral dosing 200 mg/kg): no significant changes in body weight or gross adverse toxicity
- tumor growth by volume (caliper) and final tumor weight ([6]; oral dosing 200 mg/kg): significantly reduced
- tumor growth inhibition [7, 12]: significant tumor growth inhibition
- body weight or gross adverse toxicity ([7]; oral dosing 200 mg/kg): no significant changes in body weight or gross adverse toxicity
- tumor growth by volume (caliper) and final tumor weight ([7]; oral dosing 200 mg/kg): significantly reduced
- plasma and tumor tissue levels [8]: above the in vitro proliferation EC50
- tumor growth inhibition [9]: significant tumor growth inhibition
- effect on established xenografts [10]: induced regressions
- subcutaneous tumor growth ([11]; 22RV1/PIM-1 + compound vs 22RV1/PIM-1 + vehicle): significantly reduced
- body weight changes ([11]; 22RV1/PIM-1 xenograft mice): No significant changes in body weight

Structure (SMILES): CO[C@H]1CC[C@H](Nc2ccc3ncc(-c4cccc(C(F)(F)F)c4)n3n2)CC1 [Compound 8-32, 4-(trans-Methoxycyclohexyl)-3-(3-(trifluoromethyl)phenyl)imidazo[1,2-b]pyridazin-6-amine]
- IC50 ([1]; Table IV): 0.115 µM

Structure (SMILES): C[C@]1(O)CC[C@H](Nc2ccc3ncc(-c4cccc(Cl)c4)n3n2)CC1 [Compound 8-36, 4-((3-(3-Chlorophenyl)imidazo[1,2-b]pyridazin-6-yl)amino)-1-methyl-trans-cyclohexano]
- IC50 ([1]; Table IV): 0.145 µM

Structure (SMILES): CC(C)(O)[C@H]1CC[C@H](Nc2ccc3ncc(-c4cccc(Cl)c4)n3n2)CC1 [Compound 8-37]
- IC50 ([1]; Table IV): 0.004 µM
- IC50 [2]: > 30 µM

Structure (SMILES): CC(C)(O)[C@H]1CC[C@H](Nc2ccn3ncc(-c4cccc(C(F)(F)F)c4)c3n2)CC1 [Compound 8-56]
- IC50 [2]: > 30 µM

Structure (SMILES): CC(C)(O)[C@H]1CC[C@H](Nc2ccn3ncc(-c4cccc(Cl)c4)c3n2)CC1 [Compound 8-63]
- IC50 [2]: > 30 µM

Structure (SMILES): CC(C)(N)[C@H]1CC[C@H](Nc2ccc3ncc(-c4cccc(Cl)c4)n3n2)CC1 [Compound 8-79, N-(trans-4-(2-aminopropan-2-yl)cyclohexyl)-3-(3-chlorophenyl)imidazo[1,2-b]pyridazin-6-amine]
- IC50 ([1]; Table IV): 0.002 µM

Structure (SMILES): CO[C@H]1CC[C@H](Nc2ccc3nnc(-c4cccc(OC(F)(F)F)c4)n3c2)CC1 [Compound 8-99, 4-(trans-Methoxycyclohexyl)-3-(3-(trifluoromethoxy)phenyl)-[1,2,4]triazolo[4,3-a]pyridin-6-amine]
- IC50 ([1]; Table V): 0.083 µM

Structure (SMILES): C[C@]1(O)CC[C@H](Nc2ccc3nnc(-c4cccc(C(F)(F)F)c4)n3c2)CC1 [Compound 8-108, 1-Methyl-4-((3-(3-(trifluoromethyl)phenyl)-[1,2,4]triazolo[4,3-a]pyridin-6-yl)amino)-trans-cyclohexanol]
- IC50 ([1]; Table V): 0.07 µM

Structure (SMILES): CO[C@H]1CC[C@H](Nc2ccc3nnc(-c4cccc(Cl)c4)n3c2)CC1 [Compound 8-113, 4-(trans-Methoxycyclohexyl)-3-(3-chlorophenyl)-[1,2,4]triazolo[4,3-a]pyridin-6-amine]
- IC50 ([1]; Table V): 0.722 µM
